According to article PMC4738246, “Conformational dynamics is key to understanding loss-of-function of NQO1 cancer-associated polymorphisms and its correction by pharmacological ligands” (Scientific Reports, 2016):
pKd: −log10 of the molar value. Read-outs that look alike come from different tables or passages of the source.

Assays:
NQO1 p.R139W [1] = target: T1, NQO1 p.R139W (Homo sapiens, UniProt P15559, R139W); test: Proteolysis by thermolysin, p.R139W NQO1; conditions: p.R139W apo-protein vs as purified
T1 sequence (P15559 whole entry R139W): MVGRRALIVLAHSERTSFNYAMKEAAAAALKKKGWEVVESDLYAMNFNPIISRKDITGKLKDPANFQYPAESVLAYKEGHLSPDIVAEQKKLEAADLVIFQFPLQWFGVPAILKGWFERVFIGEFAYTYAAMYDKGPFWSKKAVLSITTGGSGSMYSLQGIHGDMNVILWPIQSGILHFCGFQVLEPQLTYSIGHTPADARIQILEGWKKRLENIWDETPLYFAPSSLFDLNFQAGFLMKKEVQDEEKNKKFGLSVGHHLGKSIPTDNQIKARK
Method: (§2) Proteolysis was performed at 25 °C in HEPES-KOH 50 mM CaCl2 10 mM pH 7.4 using 20 μM in NQO1 (monomer), and the reaction was initiated by the addition of thermolysin (at a final concentration of 10 pM-1 μM) in a final volume of 200 μL. Proteolysis reactions were performed using the NQO1 proteins as purified or as apo-proteins. […] After normalization of the intensities using that of the control sample in the absence of thermolysin, the Intensity (I) vs. Time (t) profiles were analyzed using a single exponential function:
(§3) where k is the proteolysis rate constant and I0 the initial intensity.

NQO1 WT [2] = target: T2, NQO1 WT (Homo sapiens, UniProt P15559); design: made in house; conditions: FAD binding to WT, two-sequential binding sites model, average of two titrations, cited from earlier work
T2 sequence (P15559 whole entry): as the sequence (P15559 whole entry R139W) above, with W139R counted along it

NQO1 p.P187S [3] = target: T3, NQO1 p.P187S (Homo sapiens, UniProt P15559, P187S); test: Binding affinity by ITC, p.P187S NQO1; conditions: FAD and dicoumarol stated together
T3 sequence (P15559 whole entry P187S): as the sequence (P15559 whole entry R139W) above, with W139R, P187S counted along it
Method: After peak integration, binding isotherms were analyzed using a one-type of independent sites model using the software provided by the manufacturer.

NQO1 WT [4] = target: T2, NQO1 WT; test: Proteolysis by thermolysin, WT NQO1; conditions: WT apo-protein vs as purified
Method: as §2, §3

NQO1 p.P187S [5] = target: T3, NQO1 p.P187S; design: made in house; conditions: FAD binding to p.P187S; single set of sites model; average of two titrations; read-out: Kd1; cited from earlier work
NQO1 p.R139W [6] = target: T1, NQO1 p.R139W; design: made in house; conditions: FAD binding to p.R139W, two-sequential binding sites model, average of two titrations, cited from earlier work
[7] = test system: Caco-2 cells (homozygous for p.P187S); test: Steady-state NQO1 protein levels by immunoblotting, Caco-2 cells; assay type: cell-based, human; conditions: 24 h, dicoumarol 100 μM, riboflavin 10 μM, normalized to untreated cells
Method: (§1) After transferring to polyvinylidene difluoride membranes (GE Healthcare), immunoblotting was carried out using primary monoclonal antibodies anti-NQO1 and anti-β-actin (Santa Cruz Biotechnology) from mouse at 1:500 and 1:10000 dilutions, respectively. As secondary antibody, we used goat anti-mouse IgG-HRP (Santa Cruz Biotechnology) at 1:1000 dilution. Chemiluminiscent detection of bands was carried out using Clarity™ Western ECL Blotting Substrate (Biorad) and analyzed using a luminescent image analyzer LAS-4000 mini (Fujifilm).

[8] = test system: HCT 116 cells (heterozygous for p.R139W); conditions: 24 h, dicoumarol 100 μM, riboflavin 10 μM
Method: as §1

[9] = test system: HeLa cells (expressing WT NQO1); conditions: 24 h, dicoumarol 100 μM, riboflavin 10 μM
Method: as §1

Compound | increase in the sensitivity towards thermolysin on removal of FAD (NQO1 p.R139W [1]) [fold] | pKd (NQO1 WT [2]; read-out: Kd1) | pKd (NQO1 WT [2]; read-out: Kd2) | lower affinity of p.P187S than the WT enzyme (NQO1 p.P187S [3]) | increase in the sensitivity towards thermolysin on removal of FAD (NQO1 WT [4]) [fold] | pKd (NQO1 p.P187S [5]) | pKd (NQO1 p.R139W [6]; read-out: Kd1) | pKd (NQO1 p.R139W [6]; read-out: Kd2) | enhancement of steady-state levels of p.P187S NQO1 protein [7] | effect on protein levels of p.R139W NQO1 [8] | effect on protein levels of WT NQO1 [9]
Cc1cc2nc3c(=O)[nH]c(=O)nc-3n(C[C@H](O)[C@H](O)[C@H](O)COP(=O)(O)OP(=O)(O)OC[C@H]3O[C@@H](n4cnc5c(N)ncnc54)[C@H](O)[C@@H]3O)c2cc1C [FAD] | 200 | ~9.00 | 7.22 | 10–100 fold | 200 | 6.40 | ~8.52 | 7.15 |  |  | 
Cc1cc2nc3c(=O)[nH]c(=O)nc-3n(C[C@H](O)[C@H](O)[C@H](O)CO)c2cc1C [riboflavin] |  |  |  |  |  |  |  |  | much lower effect | small effects | small effects
